Laboratory results taken from patent publication US12448394B2, “Heterocyclic pyrazole derivatives as type III receptor tyrosine kinase inhibitors” (DEVELOPMENT CENTER FOR BIOTECHNOLOGY, priority 2019, dated 2025).

Legend:
FLT3-D835Y mutant kinase = biological target: T1, FLT3-D835Y mutant kinase (Homo sapiens, UniProt P36888, D835Y); experiment: FLT3-D835Y mutant kinase assay (AlphaScreen); assay type: biochemical; settings: read-out: Ranking of IC50 values, FLT3-D835Y
T1 construct: purchased SignalChem
T1 sequence (P36888 27-993 D835Y): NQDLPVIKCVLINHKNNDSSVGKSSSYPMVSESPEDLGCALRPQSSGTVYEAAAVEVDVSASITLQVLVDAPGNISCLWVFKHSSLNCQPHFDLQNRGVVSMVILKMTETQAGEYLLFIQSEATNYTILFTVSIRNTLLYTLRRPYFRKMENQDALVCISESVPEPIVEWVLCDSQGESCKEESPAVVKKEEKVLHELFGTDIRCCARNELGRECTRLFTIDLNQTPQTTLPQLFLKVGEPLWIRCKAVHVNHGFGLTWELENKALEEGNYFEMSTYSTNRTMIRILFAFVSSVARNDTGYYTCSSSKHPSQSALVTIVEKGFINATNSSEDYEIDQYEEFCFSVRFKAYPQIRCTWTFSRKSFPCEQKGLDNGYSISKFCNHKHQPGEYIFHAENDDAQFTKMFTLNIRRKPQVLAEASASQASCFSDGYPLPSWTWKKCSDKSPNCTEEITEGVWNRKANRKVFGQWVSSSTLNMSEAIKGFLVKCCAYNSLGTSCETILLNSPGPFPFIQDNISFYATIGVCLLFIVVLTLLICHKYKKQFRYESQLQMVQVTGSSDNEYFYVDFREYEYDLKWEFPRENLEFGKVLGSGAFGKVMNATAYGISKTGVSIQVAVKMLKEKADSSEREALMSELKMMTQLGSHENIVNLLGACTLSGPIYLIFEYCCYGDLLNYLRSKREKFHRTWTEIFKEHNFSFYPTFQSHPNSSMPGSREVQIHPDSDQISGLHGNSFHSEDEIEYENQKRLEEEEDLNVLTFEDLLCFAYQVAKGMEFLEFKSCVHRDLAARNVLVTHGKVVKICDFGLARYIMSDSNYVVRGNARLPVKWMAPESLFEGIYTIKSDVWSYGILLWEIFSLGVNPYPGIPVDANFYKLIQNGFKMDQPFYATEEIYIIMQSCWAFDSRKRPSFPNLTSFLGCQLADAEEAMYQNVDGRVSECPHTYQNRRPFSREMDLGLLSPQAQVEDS
How it was run: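 Recombinant FLT3-D835Y (1 ng) phosphorylated biotin-poly(Glu4:Tyr1) at 10 μM ATP, pH 7.0 MOPS buffer with 10 mM MgCl2, for 30 min at 30 °C, stopped with EDTA. Product was read by AlphaScreen. IC50 came from serial dilutions run in duplicate.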

[1] = system: THP-1 human acute monocytic leukemia cell with NRAS G12D mutation; experiment: THP-1 cell proliferation assay (counter screen); assay type: cell-based; settings: Homo sapiens, THP-1 cells, 72 hours treatment, CellTiter96, read-out: anti-proliferation activity THP-1 NRAS N12D, IC50 ranking
How it was run: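 THP-1 cells (NRAS G12D, growth independent of class III RTK signaling) seeded at 5000 cells/well overnight, then exposed to increasing compound concentrations for 72 h at 37° C, 5% CO2. Viability read by CellTiter96 AQueous One reagent (2–4 h) as absorbance at 490 nm.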

[2] = system: phosphorylation of FLT3 and its down-stream effector STAT5; experiment: Western blotting of p-FLT3 and p-STAT5 in MV4-11 cells; assay type: cell-based; settings: Homo sapiens; at 30 nM treatment, 3 hours, FLT3-ITD positive MV4-11 leukemia cells; read-out: inhibition activity against phosphorylation of FLT3 and its down-stream effector STAT5
How it was run: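 MV4-11 cells held overnight in IMDM with 0.1% FBS, then 3 million cells treated with compound for 3 h. Whole lysates immunoblotted for p-FLT3 (Tyr-591), p-STAT5 (Tyr-694) and actin. Band intensities at 30 nM compared to DMSO control; % inhibition = (1 − relative intensity) × 100.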

Compound	IC50 (FLT3-D835Y mutant kinase)	IC50 [1]	inhibition at 0.03 µM [2]
Cn1ncc2ccc(-c3n[nH]c4c3Cc3sc(-c5ccc(CN6CCOCC6)cc5OC(F)(F)F)cc3-4)cc21 [Compound 90, 4-(4-(3-(1-methyl-1H-indazol-6-yl)-1,4-dihydro-thieno[2′,3′:4,5]cyclopenta [1,2-c]pyrazol-6-yl)-3-(trifluoromethoxy)benzyl) morpholine]	1 to 10 nM	> 10000 nM	
Cn1ncc2ccc(-c3n[nH]c4c3Cc3sc(-c5ccc(N6CCOCC6)nc5)cc3-4)cc21 [Compound 82, 4-(5-(3-(1-methyl-1H-indazol-6-yl)-1,4-dihydro-thieno[2′,3′:4,5]cyclopenta [1,2-c]pyrazol-6-yl)pyridin-2-yl)morpholine]	1 to 10 nM	> 10000 nM	
CN1CCN(Cc2ccc(-c3cc4c(s3)Cc3c(-c5ccc6cn[nH]c6c5)n[nH]c3-4)cc2)CC1 [Compound 83, 3-(1H-indazol-6-yl)-6-(4-((4-methylpiperazin-1-yl)methyl)phenyl)-1,4-dihydrothieno[2′,3′:4,5] cyclopenta[1,2-c]pyrazole]	< 1 nM	> 10000 nM	> 50%
Cc1ccc(-c2cc3c(s2)Cc2c(-c4ccc5cn[nH]c5c4)n[nH]c2-3)cn1 [Compound 30, 3-(1H-indazol-6-yl)-6-(6-methylpyridin-3-yl)-1,4-dihydrothieno[2′,3′:4,5] cyclopenta[1,2-c]pyrazole]		> 10000 nM	> 50%
Cc1ccc(-c2cc3c(s2)Cc2c(-c4ccc5[nH]ncc5c4)n[nH]c2-3)cn1 [Compound 36, 3-(1H-indazol-5-yl)-6-(6-methylpyridin-3-yl)-1,4-dihydrothieno[2′,3′:4,5] cyclopenta[1,2-c]pyrazole]		> 10000 nM	> 50%
Cn1ncc2ccc(-c3n[nH]c4c3Cc3sc(-c5ccc(CN6CCOC6=O)cc5)cc3-4)cc21 [Compound 62, 3-(4-(3-(1-methyl-1H-indazol-6-yl)-1,4-dihydro-thieno[2′,3′:4,5]cyclopenta [1,2-c]pyrazol-6-yl)benzyl)oxazolidin-2-one]		> 10000 nM	> 50%
CN1CCN(Cc2ccc(-c3cc4c(s3)Cc3c(-c5ccc6cnn(C)c6c5)n[nH]c3-4)cc2)CC1 [Compound 84, 3-(1-methyl-1H-indazol-6-yl)-6-(4-((4-methylpiperazin-1-yl)methyl)phenyl)-1,4-dihydrothieno [2′,3′:4,5]cyclopenta [1,2-c]pyrazole]	< 1 nM	> 10000 nM	> 50%
COc1ccc(-c2cc3c(s2)Cc2c(-c4ccc5cn[nH]c5c4)n[nH]c2-3)cn1 [Compound 2, 3-(1H-indazol-6-yl)-6-(6-methoxypyridin-3-yl)-1,4-dihydrothieno[2′,3′:4,5] cyclopenta[1,2-c]pyrazole]		> 10000 nM	> 50%
CN1CCN(c2cc(-c3cc4c(s3)Cc3c(-c5ccc6cnn(C)c6c5)n[nH]c3-4)ccn2)CC1 [Compound 87, 3-(1-methyl-1H-indazol-6-yl)-6-(2-(4-methyl-piperazin-1-yl)pyridin-4-yl)-1,4-dihydrothieno [2′,3′:4,5]cyclopenta [1,2-c]pyrazole]	< 1 nM	> 10000 nM	
Cn1ncc2ccc(-c3n[nH]c4c3Cc3sc(-c5ccc(CN6CCNCC6=O)cc5)cc3-4)cc21 [Compound 101, 1-(4-(3-(1-methyl-1H-indazol-6-yl)-1,4-dihydro-thieno[2′,3′:4,5]cyclopenta [1,2-c]pyrazol-6-yl)benzyl)piperazin-2-one]		> 10000 nM	> 50%
Nc1ccc(-c2cc3c(s2)Cc2c(-c4ccc5[nH]ncc5c4)n[nH]c2-3)cn1 [Compound 40, 5-(3-(1H-indazol-5-yl)-1,4-dihydrothieno [2′,3′:4,5]cyclopenta [1,2-c]pyrazol-6-yl) pyridin-2-amine]		1000 to 10000 nM	> 50%
Cc1n[nH]c2cc(-c3n[nH]c4c3Cc3sc(-c5ccc(CN6CCOCC6)cc5)cc3-4)ccc12 [Compound 81, 4-(4-(3-(3-methyl-1H-indazol-6-yl)-1,4-dihydro-thieno[2′,3′:4,5]cyclopenta [1,2-c]pyrazol-6-yl)benzyl)morpholine]	1 to 10 nM	1000 to 10000 nM	
Cn1ncc2ccc(-c3n[nH]c4c3Cc3sc(-c5ccnc(Cl)c5)cc3-4)cc21 [Compound 86, 6-(2-chloropyridin-4-yl)-3-(1-methyl-1H-indazol-6-yl)-1,4-dihydrothieno [2′,3′:4,5]cyclopenta [1,2-c]pyrazole]	1 to 10 nM	> 10000 nM	
COc1ccc(-c2cc3c(s2)Cc2c(-c4ccc5cnn(C)c5c4)n[nH]c2-3)cn1 [Compound 4, 6-(6-methoxypyridin-3-yl)-3-(1-methyl-1H-indazol-6-yl)-1,4-dihydrothieno [2′,3′:4,5]cyclopenta[1,2-c] pyrazole]	< 1 nM	> 10000 nM	
Cn1ncc2ccc(-c3n[nH]c4c3Cc3sc(-c5ccc(CN6CCOCC6)c(F)c5F)cc3-4)cc21 [Compound 88, 4-(2,3-difluoro-4-(3-(1-methyl-1H-indazol-6-yl)-1,4-dihydrothieno [2′,3′:4,5]cyclopenta [1,2-c]pyrazol-6-yl)benzyl)morpholine]	1 to 10 nM	> 10000 nM	
Cn1ncc2ccc(-c3n[nH]c4c3Cc3sc(-c5ccc(N)nc5)cc3-4)cc21 [Compound 92, 5-(3-(1-methyl-1H-indazol-6-yl)-1,4-dihydro-thieno[2′,3′:4,5]cyclopenta [1,2-c]pyrazol-6-yl) pyridin-2-amine]	< 1 nM	1000 to 10000 nM	> 50%
Nc1ccc(-c2cc3c(s2)Cc2c(-c4ccc5cn[nH]c5c4)n[nH]c2-3)cn1 [Compound 3, 5-(3-(1H-indazol-6-yl)-1,4-dihydrothieno[2′,3′:4,5]cyclopenta[1,2-c]pyrazol-6-yl)pyridin-2-amine]		> 10000 nM	> 50%
CN1CCN(c2ccc(-c3cc4c(s3)Cc3c(-c5ccc6cnn(C)c6c5)n[nH]c3-4)cn2)CC1 [Compound 85, 3-(1-methyl-1H-indazol-6-yl)-6-(6-(4-methyl-piperazin-1-yl)pyridin-3-yl)-1,4-dihydrothieno [2′,3′:4,5]cyclopenta [1,2-c]pyrazole]	< 1 nM	> 10000 nM	
CN(C)Cc1ccc(-c2cc3c(s2)Cc2c(-c4ccc5cnn(C)c5c4)n[nH]c2-3)cc1 [Compound 94, N,N-dimethyl-1-(4-(3-(1-methyl-1H-indazol-6-yl)-1,4-dihydrothieno [2′,3′:4,5]cyclopenta [1,2-c]pyrazol-6-yl)phenyl)methanamine]	1 to 10 nM	1000 to 10000 nM	> 50%
CN(C)Cc1ccc(-c2cc3c(s2)Cc2c(-c4ccc5cnn(C)c5c4)n[nH]c2-3)cn1 [Compound 93, N,N-dimethyl-1-(5-(3-(1-methyl-1H-indazol-6-yl)-1,4-dihydrothieno [2′,3′:4,5]cyclopenta [1,2-c]pyrazol-6-yl)pyridin-2-yl)methanamine]	1 to 10 nM	> 10000 nM	
Cc1cc(CN2CCOCC2)ccc1-c1cc2c(s1)Cc1c(-c3ccc4cnn(C)c4c3)n[nH]c1-2 [Compound 91, 4-(3-methyl-4-(3-(1-methyl-1H-indazol-6-yl)-1,4-dihydrothieno [2′,3′:4,5]cyclopenta [1,2-c]pyrazol-6-yl)benzyl)morpholine]	1 to 10 nM	1000 to 10000 nM	
COc1ccc(-c2cc3c(s2)Cc2c(-c4ccc5[nH]ncc5c4)n[nH]c2-3)cn1 [Compound 1, 3-(1H-indazol-5-yl)-6-(6-methoxypyridin-3-yl)-1,4-dihydrothieno[2′,3′:4,5] cyclopenta[1,2-c]pyrazole]		> 10000 nM	> 50%
